Molecules are shown by their SMILES. Values after ≈ are worked out from the molar mass of the structure shown.

The conditions of this data set: buffer; pH 7.4; 200.0 µM.
Turning to `COC(=O)CCCNC(=O)c1ccc2[nH]c(C)c(C)c2c1`, the kinetic solubility is > 43.3 µg/mL.

As for `Cc1ccc(CC(=O)NCCC(=O)O)cc1`, the kinetic solubility was > 33.2 µg/mL. With `CN(C(=O)c1ccc(Cl)cc1)C1CCS(=O)(=O)C1` (stereo unspecified), the kinetic solubility turned out to be 41.2 µg/mL (≈ 143 µM). In turn, `CCCC12CN3CCN(C1)CC(CCC)(C3)C2=O` returned a kinetic solubility of 30.9 µg/mL (≈ 123 µM). Under `COc1ccc(S(=O)(=O)NCc2csc(C)n2)cc1OC` stands > 49.3 µg/mL; under `COc1cccc(C(=O)NCC(=O)OCC(=O)NC2CCCCC2)c1`, > 52.3 µg/mL; under `CCc1cccc(NC(=O)C2CCCN(c3cnccn3)C2)c1` (stereo unspecified), > 46.6 µg/mL. Regarding `Cc1ccc(NC(=O)c2cccs2)cc1[N+](=O)[O-]`, the solubility (kinetic) is 2.4 µg/mL (≈ 9.15 µM). `Cc1ccc(S(=O)(=O)NC2CC(C)(C)NC(C)(C)C2)c(C)c1C` yielded a solubility (kinetic) of 42.6 µg/mL (≈ 126 µM). With `CC(=O)Nc1ccc2c3c(cccc13)C(=O)N(c1ccccc1)C2=O`, the kinetic solubility came out at 2.3 µg/mL (≈ 6.96 µM).

For the molecule `COC(=O)CC1NCCc2cc(OC)c(OC)cc21` (stereo unspecified), the solubility (kinetic) is > 39.8 µg/mL. For the molecule `CCCCC/C(=N/O)c1c(C)[nH]c2ccccc12`, the kinetic solubility was found to be 29.8 µg/mL (≈ 122 µM). Under `CN(Cc1ccc(F)cc1)C(=O)CN1C(=O)c2ccccc2S1(=O)=O` stands 49 µg/mL (≈ 135 µM). `Cn1c(=O)c2ccccc2n(CC(=O)NC2CCCC2)c1=O` displayed a kinetic solubility of 40.2 µg/mL (≈ 133 µM). Under `CCn1c(CNC(=O)c2cccnc2)cc2ccccc21` stands > 41.9 µg/mL. For `Cc1ccccc1C(N)c1ccncc1.Cl` (stereo unspecified) the value was > 40.7 µg/mL; for `COc1cccc(NC(=O)CCN2C(=O)c3cccc([N+](=O)[O-])c3C2=O)c1`, > 55.4 µg/mL; for `CCOC(=O)N1CCN(CCC(=O)c2ccc(Cl)cc2)CC1.Cl`, > 48.7 µg/mL. For `COc1ccc(S(=O)(=O)N2CCN(c3cnccn3)CC2)cc1` the value was > 50.2 µg/mL; for `COc1cccc(-c2ocnc2C(=O)Nc2ccc3c(c2)CCC3)c1`, < 0.4 µg/mL. Consider `COc1cccc2cc(C(=O)NC(C)c3ccccc3)c(=O)oc12` (stereo unspecified), for which the kinetic solubility was < 0.7 µg/mL.

Regarding `N#CCCN(Cc1cccnc1)C(=S)NCc1ccco1`, the solubility (kinetic) is > 45.1 µg/mL. Turning to `Cc1cc(Cl)cc(C)c1OCC(=O)NC1CCCCCC1`, the kinetic solubility worked out at 1.9 µg/mL (≈ 6.13 µM).

`Cc1c(C)n(CCc2ccccc2)c2ncnc(NCCCO)c12` gave a solubility (kinetic) of 48.3 µg/mL (≈ 149 µM). In the case of `O=C(c1cccc([N+](=O)[O-])c1)N1CC2C3C=CC(C3)C2C1` (stereo unspecified), the kinetic solubility is > 42.6 µg/mL. As to `Cc1ccnc(NC(=O)c2ccc([N+](=O)[O-])s2)c1`, the kinetic solubility amounted to 4 µg/mL (≈ 15.2 µM).

`Cc1cc(C)nc(N/N=C/c2sccc2C)n1`: the kinetic solubility is > 36.9 µg/mL. For `O=C(Nc1ncc([N+](=O)[O-])s1)c1ccccc1Br` the value was 41.1 µg/mL (≈ 125 µM); for `CCOC(=O)Cc1nc2nc(C)cc(C)n2n1`, > 35.1 µg/mL; for `Cc1ccc(-n2c(C(C)C)nc3oc4ccccc4c(=O)c3c2=O)cc1`, 14.7 µg/mL (≈ 42.4 µM).

On to `Cn1c(OCc2cccnc2)nc2c1c(=O)n(Cc1ccc(F)cc1)c(=O)n2C`, for which the kinetic solubility was found to be 7.7 µg/mL (≈ 19.5 µM). Regarding `CCC1(CC)Cc2ccccc2-c2[nH]c(=S)[nH]c(=O)c21`, the solubility (kinetic) worked out at 27.3 µg/mL (≈ 95.3 µM). For `O=C1OCc2ccc(NC(=O)C3CC3)cc21` the value was > 32.6 µg/mL; for `Fc1ccc(NC(=S)NCc2ccccc2)cc1`, > 39 µg/mL; for `CNC1=CC(=O)CC(c2ccccc2)C1` (stereo unspecified), > 30.2 µg/mL. Take `CCN(CC)Cc1nc2sc(C)c(C)c2c(=O)[nH]1`: the solubility (kinetic) worked out at 34.9 µg/mL (≈ 132 µM).

Molecule `CCC1CCC2(CC1)SCC(=O)N2c1ccccc1` (stereo unspecified) came in with a kinetic solubility of 5.7 µg/mL (≈ 20.7 µM).

For the molecule `CS(=O)(=O)N1CCN(CC(=O)NC2CCCC2)CC1`, the solubility (kinetic) is > 43.4 µg/mL. Under `O=C(Nc1ccccc1)N(c1ccccc1)C1C=CS(=O)(=O)C1` (stereo unspecified) stands > 49.3 µg/mL. For `O=C(NC(=S)Nc1ccc(Cl)cc1)c1cncc(Br)c1` the value was 3.4 µg/mL (≈ 9.17 µM); for `O=C(COC(=O)c1ccc(Cl)cc1[N+](=O)[O-])NC(=O)c1ccccc1`, 4.8 µg/mL (≈ 13.2 µM).

As usually defined, the kinetic solubility is the concentration staying in solution when a stock, usually in DMSO, is diluted into the medium.

These data come from PubChem BioAssay AID1996.
